Test results as given in patent publication US20090312282A1, “Novel Low Molecular Weight Hyaluronic Acid and/or Salt Thereof, and Cosmetic Preparation, Pharmaceutical Composition, and Food Composition Each Using Same” (Q. P. Corporation, priority 2006, published 2009).

Test system: hairless mice (Hos: HR-1)
Details: mouse, in vivo
Text: In this test example, the low-molecular-weight hyaluronic acid according to the invention was percutaneously administered to a mouse to evaluate the percutaneous absorbability of the low-molecular-weight hyaluronic acid. Six-week-old (when the test was started) male hairless mice (Hos: HR-1) (purchased from Japan SLC Inc.) […] Specifically, the hyaluronic acid was labeled with a fluorescent substance by allowing a carboxylic acid group of the hyaluronic acid to react with DMEQ-hydrazide. […] The HPLC analysis conditions were as follows. • Analyzer: Waters 2690 470 • Column: Shodex suger KS807 (gel filtration column) • Column temperature: 40° C. • Flow rate: 0.5 mL/min • Injection amount: 20 microliters • Mobile phase: 0.003 mol/L phosphoric acid buffer containing 0.15 mol/L sodium chloride • Fluorescence analysis conditions: excitation wavelength: 365 nm, fluorescence wavelength: 447 nm […] It is considered that the peak was also detected in the test group 3 due to a fluorescent substance (e.g., vitamin, aromatic amino acid, and cholesterol) originally contained in the living body. […] The STD solution was analyzed by HPLC to determine the peak area.

Substance	fluorescence intensity (peak) in the skin compared with control group (test group 3)	amount of percutaneous absorption of hyaluronic acid (increase in hyaluronic acid per g of skin)
hyaluronic acid [Sample 2]	no significant difference	
low-molecular-weight hyaluronic acid [Example 2]		increased with time when the sample attachment time was 1 to 3 hours, and almost reached equilibrium when the sample attachment time was 3 to 5 hours
